Measurements published in patent US5684032A, “Compounds” (SmithKline Beecham Corporation, priority 1995, dated 1997).

Legend:
[1] = test system: recombinant human IL-8 type α receptor (IL-8Rα, Type I, non-permissive receptor); experiment: [125I] IL-8 receptor binding assay, IL-8Rα (Type I, non-permissive) CHO membranes; settings: IL-8Rα (type I) receptor binding assay
Excerpt: (§1) [^125 I] IL-8 (human recombinant) was obtained from Amersham Corp., Arlington Heights, Ill., with specific activity 2000 Ci/mmol. All other chemicals were of analytical grade. High levels of recombinant human IL-8 type α and β receptors were individually expressed in Chinese hamster ovary cells as described previously (Holmes, et al., Science, 1991, 253, 1278). The Chinese hamster ovary membranes were homogenized according to a previously described protocol (Kraft, et al., Nature, 1983, 301, 621). Membrane protein concentration was determined using Pierce Co. micro-assay kit using bovine serum albumin as a standard. All assays were performed in a 96-well micro plate format. Each reaction mixture contained ^125 I IL-8 (0.25 nM), 0.5 μg/mL of IL-8Rα or 1.0 μg/mL of IL-8Rβ membranes in 20 mM Bis-Trispropane and 0.4 mM Tris HCl buffers, pH 8.0, containing 1.2 mM MgSO4, 0.1 mM EDTA, 25 mM NaCl and 0.03% CHAPS plus peptide at relevant concentrations. The assay was initiated by addition of ^125 I-IL-8. After 1 hour at room temperature the plate was harvested using a Tomtec 96-well harvester onto a glass fiber filtermat blocked with 1% polyethyleneimine/0.5% BSA and washed 3 times with 25 mM NaCl, 10 mM TrisHCl, 1 mM MgSO4, 0.5 mM EDTA, 0.03% CHAPS, pH 7.4. The filter was then dried and counted on the Betaplate liquid scintillation counter. […]

[2] = test system: recombinant human IL-8 type β receptor (IL-8Rβ, Type II, permissive receptor); experiment: [125I] IL-8 receptor binding assay, IL-8Rβ (Type II, permissive) CHO membranes; settings: IL-8Rβ (type II) receptor binding assay
Excerpt: as §1

## O=C(O)c1c(-c2ccccc2)c2ccccc2n1Cc1ccc(OC(F)(F)F)cc1
[1]
  inhibition of IL-8 binding, result in words: not active
[2]
  inhibition of IL-8 binding, result in words: not active
